From patent US12091684B2, “Platelet-derived mitochondria treatment and method of generating multipotent cells” (Hackensack Meridian Health, Inc., priority 2020, dated 2024)

Key:
CXCR4 = CXCR4 (Homo sapiens, UniProt P61073); details: 30 μM, 4 hours, purified PB-IPC nuclei with labeled mitochondria
Experimental: To determine whether the action of SDF-1/CXCR4 contributed to the penetration of mitochondria into nuclei, a blocking experiment with CXCR4 receptor antagonist AMD3100 was performed. The purified PB-IPC's nuclei were treated with MitoTracker Deep Red-labeled purified mitochondria in the presence or absence of AMD 3100 (30 μM). The equal concentration of solvent DMSO served as a control. After 4 hours of the treatment, nuclei were washed twice with PBS and prepared for flow cytometry.

γ-secretase = test: DAPT-blocking experiment (CD34 expression by flow cytometry); type: cell-based, human; details: PB-IPCs, 10 μM DAPT, 100 μg/mL mitochondria where present, 7-14 days, n=4
Experimental: For a DAPT-blocking experiment, PB-IPCs were treated with 100 μg/mL mitochondria plus 10 μM DAPT (Sigma, Saint Louis, MO, USA, Catalog #D5942) for 7-14 days in non-tissue, culture-treated 24-well plates or Petri dishes with serum-free NutriStem® hPSC XF culture medium (Corning, New York, NY, USA), at 37° C. and 8% CO2. Subsequently, both treated and untreated PB-IPC were collected to examine the expression of CD34 by flow cytometry.

Chain of CXCR4 (P61073 whole entry): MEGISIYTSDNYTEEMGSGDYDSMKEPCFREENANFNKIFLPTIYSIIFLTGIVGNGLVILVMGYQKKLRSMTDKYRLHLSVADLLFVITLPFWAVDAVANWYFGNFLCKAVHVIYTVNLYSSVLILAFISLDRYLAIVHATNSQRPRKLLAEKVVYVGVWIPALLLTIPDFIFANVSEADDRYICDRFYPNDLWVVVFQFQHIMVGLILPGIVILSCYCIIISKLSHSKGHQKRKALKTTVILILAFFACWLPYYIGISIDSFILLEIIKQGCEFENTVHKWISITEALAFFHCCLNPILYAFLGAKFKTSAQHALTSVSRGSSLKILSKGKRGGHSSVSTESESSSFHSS

Row | percentage of MitoTracker Deep Red-positive nuclei (CXCR4) | SMILES | percentage of CD34+ cells (γ-secretase)
1 | markedly reduced | c1cc(CN2CCCNCCNCCCNCC2)ccc1CN1CCCNCCNCCCNCC1 [AMD 3100] | –
2 | – | C[C@H](NC(=O)Cc1cc(F)cc(F)c1)C(=O)N[C@H](C(=O)OC(C)(C)C)c1ccccc1 [DAPT, N—[N-(3,5-difluorophenacetyl)-L-alanyl]-S-phenylglycine t-butyl ester] | 2.59%±0.13%
